Data reported in patent US20240180998A1, “MULTILAYERED PATCH” (KØBENHAVNS UNIVERSITET, priority 2021, published 2024).
≈ marks a conversion by molar mass, not a printed value.

Assays:
[1] = Drug loading of freeze-dried foam (disintegration of foam discs and quantification); assay type: physicochemical; details: for Loading efficiency (%): mean ± standard deviation
Description: The samples were incubated for 3 h at 37° C. and aliquots of 100 μL were withdrawn from each of the diffusion cells at specific time points and replenished with 100 μL warm (37° C.) hHBSS. The exact peptide dose was determined by disintegrating a 10 mm foam disc of known weight in 1 mL water for at least 1 h at RT. All samples were centrifuged (10,000 rpm/9279×g, 10 min, 4° C.) and the concentration of desmopressin in the supernatant was determined by reversed phase high performance liquid chromatography with UV detection (RP-HPLC-UV). Discs (10 mm in diameter) of NFF multilayered DDS were fixed in Ussing chamber […] […] 2 mL warm (37° C.) hHBSS without BSA pH 6.8 was added to each side of the sample. The samples were incubated for 3 h at 37° C. and aliquots of 100 μL were withdrawn from each of the diffusion cells at specific time points and replenished with 100 μl warm (37° C.) hHBSS without BSA pH 6.8.

[2] = system: C. albicans; details: Huang et al., 2020; cited from earlier work
[3] = Huang et al., 2020, cited from earlier work
[4] = drug loaded in foam, desmopressin at theoretical loading 29.13 μg/mg

Structure (SMILES) | Loading efficiency (%) [1, 4] [%] | minimal fungicidal concentration (MFC) [2] [µg/mL] | minimal inhibitory concentration (MIC) [2] [µg/mL] | Log P [3] | aqueous solubility ([3]; in water) [µg/mL] | Loading efficiency (%) ([1]; desmopressin at theoretical loading 107.17 μg/mg) | specific loading of desmopressin ([1]; foam of NFF, discs of 10 mm)
Clc1ccccc1C(c1ccccc1)(c1ccccc1)n1ccnc1 [Clotrimazole] | 110 ± 2 | 4 (≈ 11.6 µM) | 1 (≈ 2.9 µM) | 6.3 | 0.49 (≈ 1.42 µM) |  | 
NC(=O)CC[C@@H]1NC(=O)[C@H](Cc2ccccc2)NC(=O)[C@H](Cc2ccc(O)cc2)NC(=O)CCSSC[C@@H](C(=O)N2CCC[C@H]2C(=O)N[C@H](CCCN=C(N)N)C(=O)NCC(N)=O)NC(=O)[C@H](CC(N)=O)NC1=O [Desmopressin] | 97 ± 1 |  |  |  |  | 117 ± 1 | 28.2±0.2 μg per mg of foam
